Read-outs that look alike come from different tables or passages of the source.
Legend:
CB1 receptor [1] = molecular target: T1, CB1 receptor (Rattus norvegicus, UniProt P20272); test: CB1 binding procedure: displacement of [3H]CP 55,940 from rat whole-brain P2 membranes; design: whole brain was homogenized and centrifuged; from tissue; host or cells: rat whole brain, P2 membrane fraction; details: for Ki: [3H]CP 55,940, rat brain membranes
Description: (§1) Male ICR mice (25–32 g), obtained from Harlan (Dublin, Va.), were housed in groups of five. All animals were kept in a temperature-controlled (20–22° C.) environment with a 12-hour light-dark cycle (lights on at 7 a.m.). Separate mice were used for testing each drug dose in the in vivo behavioral procedures. Brain tissue for binding studies was obtained from male Sprague-Dawley rats (150–200 g) purchased from Harlan Laboratories (Dublin, Va.).
The methods used for tissue preparation and binding have been described previously (Compton et al., 1993) and are similar to those described by Devane et al. (1988). All assays, as described briefly below, were performed in triplicate, and the results represent the combined data from three to six individual experiments.
Following decapitation and rapid removal of the brain, whole brain was homogenized and centrifuged. The resulting pellet was termed P1. The supernatant was saved and combined with the two subsequent supernatants obtained from washing of the P1 pellet. The combined supernatant fractions were centrifuged, resulting in the P2 pellet. After further incubation and centrifuging, this pellet was resuspended in assay buffer to a protein concentration of approximately 2 mg/ml. The membrane preparation was quickly frozen in a bath solution of dry ice and 2-methylbutane (Sigma Chemical Co., St. Louis, Mo.), then stored at −80° C. for no more than 2 weeks. Prior to performing a binding assay an aliquot of frozen membrane was rapidly thawed and protein values determined by the method of Bradford (1976).
Binding was initiated by the addition of 150 μg of P2 membrane to test tubes containing 1 nM of [^3H] CP 55,940 (79 Ci/mmol) and a sufficient quantity of buffer to bring the total incubation volume to 1 ml. Nonspecific binding was determined by the addition of 1 μM unlabeled CP 55,940. Following incubation at 30° C. for 1 hr, binding was terminated by addition of ice cold buffer and vacuum filtration through pretreated filters in a 12-well sampling manifold (Millipore, Bedford, Mass.). After washing, filters were placed into plastic scintillation vials (Packard, Downer Grove, Ill.) and shaken. The quantity of radioactivity present was determined by liquid scintillation spectrometry.
(§2) In addition, multiple linear regression was used to calculate the overall degree of relationship between CB1 binding affinity and potency in the mouse measures for all active cannabinoids. […] Ki values for CB1 and CB2 binding were obtained from Scatchard displacement analysis as determined via EBDA program of the KELL software package (Biosoft, Milltown, N.J.).

CB2 receptor = molecular target: T2, CB2 receptor (Homo sapiens, UniProt P34972); test: CB2 binding procedure: displacement of [3H]CP-55,940 from membranes of transfected CHO cells; details: for CB1/CB2 (ratio of Ki): CB1 Ki divided by CB2 Ki; for Ki: [3H]CP-55,940, transfected CHO cell membranes; for fold decrease in CB2 affinity: relative to the comparator analog
T2 construct: expressed in transfected cells; host or cells: CHO cells, G418-selected transfected line
T2 sequence (P34972 whole entry): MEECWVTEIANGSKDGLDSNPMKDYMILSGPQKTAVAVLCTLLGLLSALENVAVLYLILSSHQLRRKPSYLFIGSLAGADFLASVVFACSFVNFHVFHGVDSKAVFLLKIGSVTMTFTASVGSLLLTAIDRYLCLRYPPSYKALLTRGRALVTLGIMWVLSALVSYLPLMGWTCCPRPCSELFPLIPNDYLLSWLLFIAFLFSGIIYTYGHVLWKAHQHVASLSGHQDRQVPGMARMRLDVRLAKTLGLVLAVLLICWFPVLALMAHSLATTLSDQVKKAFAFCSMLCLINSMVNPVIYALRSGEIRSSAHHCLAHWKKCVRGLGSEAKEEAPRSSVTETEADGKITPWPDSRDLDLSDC
Description: Membranes for CB2 binding were obtained from CHO cells. The transfected cell line was maintained in Dublecco's Modified Eagle Medium (Gibco BRL, Grand Island, N.Y.) with 10% fetal clone II (HyClone Laboratories, Inc., Logan, Utah) plus 0.3 to 0.5 mg/ml G418 (to maintain selective pressure) under 5% CO2 at 37% C. Cells were harvested with 1 mM EDTA in phosphate-buffered saline and were centrifuged at 1000×g for 5 min at 4% C. The supernatant was saved and the P1 pellet was resuspended in centrifugation buffer. Homogenization and centrifugation were repeated twice and the combined supernatant fractions were centrifuged at 40,000×g for 30 min at 4% C. The P2 pellet was resuspended in centrifugation buffer 2 (Tris HCl, 50 mM; EDTA, 1 mM; and MgCl2, 3 mM, pH 7.4) to a protein concentration of approximately 2 mg/ml. Protein concentrations were determined by the method of Bradford (1976) using Bio-Rad Protein Assay (Bio-Rad, Richmond, Calif.) and BSA standards (fatty acid free, Sigma Chemical Co., St. Louis, Mo.). The membrane preparation was divided into amounts convenient for binding assays and frozen rapidly in dry ice and stored at −80% C.
Binding was initiated by the addition of 50 μg of quickly thawed P2 membranes to test tubes containing [^3H]CP-55,940 (final reaction concentration 0.5 nM), an appropriate concentration of unlabeled CP-55,940 or test drug, and sufficient quantity of assay buffer (50 mM Tris-HCl, 1 mM EDTA, 3 mM MgCl2, 5 mg/ml bovine serum albumin, pH 7.4) to bring the total incubation volume to 0.5 ml. Concentration of [^3H]CP-55,940 in saturation studies ranged from 50 to 10,000 pM. Nonspecific binding was determined by the addition of 1 μM unlabeled CP-55,940. CP-55,940 and all cannabinoid analogs were prepared by suspension in assay buffer from a 1 mg/ml ethanolic stock without evaporation of the ethanol (final concentration of no more than 0.4%). In competition studies, analog concentrations ranged from 0.1 nM to 10 μM. After incubation at 30% C for 1 hr, binding was terminated by the addition of 2 ml of ice-cold wash buffer (50 mM Tris-HCl and 1 mg/ml BSA) and vacuum filtration through pre-treated filters in a 12-well sampling manifold (Millipore, Bedford, Mass.). Reaction vessels were washed once with 2 ml of ice-cold wash buffer. Filters were placed into 7-ml plastic scintillation vials (RPI Corp., Mount Prospect, Ill.) with 4 ml of Budget-Solve (RPI Corp.). After shaking for 30 min, the radioactivity present was determined by liquid scintillation spectrometry. Three reaction vessels were used for each drug concentration in each assay. The results represent the combined data of three independent experiments. All assays were performed in siliconized test tubes, which were prepared by air drying (12 hr) inverted borosilicate tubes after two rinses with a 0.1% solution of AquaSil (Pierce, Rockford, Ill.). The GF/C glass-fiber filters (2.4 cm, Baxter, McGaw Park, Ill.) were pre-treated in a 0.1% solution of pH 7.4 polyethylenimine (Sigma Chemical Co.) for at least 6 hr.
as §2

Male ICR mice [2] = test: Change in rectal temperature (RT) in mice; assay type: in vivo, mouse; details: for ED50: Mus musculus, iv; for R.T. effect at dose: @ 30 (mg/kg); for RT effect at the highest dose (change in rectal temperature): 30 mg/kg
Description: as §1
(§3) Measurement of spontaneous activity in mice occurred in standard activity chambers interfaced with a Digiscan Animal Activity Monitor (Omnitech Electronics, Inc., Columbus, Ohio). A standard tail-flick apparatus and a digital thermometer (Fisher Scientific, Pittsburgh, Pa.) were used to measure antinociception and rectal temperature, respectively
(§4) Resorcinols were synthesized in our labs (Organix, Inc., Woburn, Mass.) according to the procedure specified below and were suspended in a vehicle of absolute ethanol, Emulphor-620 (Rhone-Poulenc, Inc., Princeton, N.J.), and saline in a ratio of 1:1:18. Drugs were administered to the mice intravenously (i.v.) in the tail vein at a volume of 0.1 ml/10 g.
(§5) Prior to testing in the behavioral procedures, mice were acclimated to the experimental setting (ambient temperature 22–24° C.) overnight. Pre-injection control values were determined for rectal temperature and tail-flick latency (in sec). […] Tail-flick latency was measured at 20 min post-injection. Maximum latency of 10 sec was used. Antinociception was calculated as percent of maximum possible effect {% MPE=[(test−control latency)/(10-control)]×100}. Control latencies typically ranged from 1.5 to 4.0 sec. At 30 min post-injection, rectal temperature was measured This value was expressed as the difference between control temperature (before injection) and temperatures following drug administration (° C.). Different mice (n=5–6 per dose) were tested for each dose of each compound. Each mouse was tested in each of the 3 procedures.
(§6) Based on data obtained from numerous previous studies with cannabinoids, maximal cannabinoid effects in each procedure were estimated as follows: 90% inhibition of spontaneous activity, 100% MPE in the tail flick procedure, and −6° C. change in rectal temperature. ED50's were defined as the dose at which half maximal effect occurred. For drugs that produced one or more cannabinoid effect, ED50's were calculated separately using least-squares linear regression on the linear part of the dose-effect curve for each measure in the mouse tetrad, plotted against log10 transformation of the dose. For the purposes of potency comparison, potencies were expressed as μmol/kg.

Male ICR mice [3] = test: Tail-flick antinociception (TF, % MPE) in mice; assay type: in vivo, mouse; details: for ED50: Mus musculus, iv; for T.F. % effect at dose: @ 30 (mg/kg); for TF percent effect (% MPE) at the highest dose: 30 mg/kg
Description: as §1, §3, §4, §5, §6

Male ICR mice [4] = test: Suppression of spontaneous activity (SA) in mice; assay type: in vivo, mouse; details: for S.A ED50 / ED50 SA (suppression of spontaneous activity) / ED50 / SA percent effect at the highest dose: mice, i.v.; for S.A % effect at dose: @ 30 (mg/kg); for ED50: Mus musculus, iv; for SA percent effect at the highest dose: 30 mg/kg, % inhibition of activity of vehicle group
Description: as §1, §3, §4, §5, §6

CB1 receptor [5] = molecular target: T1, CB1 receptor; details: values from Hanu et al 1999; ligand [3H]HU-243; cited from earlier work
[6] = means ± SEM, read-out: Ki (nM) CB1
[7] = means ± SEM, read-out: Ki (nM) CB2
[8] = Table 6, mice, i.v., read-out: R.T. ED50
[9] = mice, i.v., 95% confidence limits in parentheses, read-out: ED50 RT (rectal temperature)
[10] = Table 6, mice, i.v., read-out: T.F. ED50
[11] = mice, i.v., 95% confidence limits in parentheses, read-out: ED50 TF (antinociceptive effect in tail flick assay)
[12] = 95% confidence limits in parentheses
[13] = mice, i.v., 95% confidence limits in parentheses
[14] = 95% confidence limits in parentheses, read-out: ED50 SA (suppression of spontaneous activity)

T1 sequence (P20272 whole entry): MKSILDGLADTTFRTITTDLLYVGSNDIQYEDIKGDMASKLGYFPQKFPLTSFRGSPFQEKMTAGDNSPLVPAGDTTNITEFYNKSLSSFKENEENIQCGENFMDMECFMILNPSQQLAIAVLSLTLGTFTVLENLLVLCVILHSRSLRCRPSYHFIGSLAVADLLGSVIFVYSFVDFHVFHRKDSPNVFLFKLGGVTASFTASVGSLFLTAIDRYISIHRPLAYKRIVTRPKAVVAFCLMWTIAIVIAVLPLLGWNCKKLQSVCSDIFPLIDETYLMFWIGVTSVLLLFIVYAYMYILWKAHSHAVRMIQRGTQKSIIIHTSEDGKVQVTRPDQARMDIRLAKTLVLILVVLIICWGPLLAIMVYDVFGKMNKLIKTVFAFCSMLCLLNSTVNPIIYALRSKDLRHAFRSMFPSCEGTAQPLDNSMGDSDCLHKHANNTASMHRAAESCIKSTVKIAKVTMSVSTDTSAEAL

Row | SMILES | Ki (CB1 receptor [1]; [6]) [nM] | CB1/CB2 (ratio of Ki) (CB2 receptor) | Ki (CB2 receptor; [7]) [nM] | ED50 (Male ICR mice [2]; [9]) [µmol/kg] | ED50 (Male ICR mice [3]; [11]) [µmol/kg] | T.F. % effect at dose (Male ICR mice [3]; Table 6) | S.A % effect at dose (Male ICR mice [4]; Table 6) | further results
1 | CCCCCCC(C)(C)c1cc(O)c(C2CCCC(C)C2)c(O)c1 (single isomer, unassigned) [O-1797A] | 5 ± 0.6 | 12 | 0.4 ± 0.03 | 0.7 | 1.1 | – | – | ED50 (Male ICR mice [2]; [8]): 0.252 mg/kg; ED50 (Male ICR mice [3]; [10]): 0.362 mg/kg; S.A ED50 (Male ICR mice [4]; Table 6, listed as O-1297): 0.154 mg/kg; ED50 SA (suppression of spontaneous activity) (Male ICR mice [4]; [12]): 0.5(0.4–0.6) μmol/kg
2 | CCCCCCC(C)(C)c1cc(O)c(C2CCCC(C)C2)c(O)c1 (single isomer, unassigned) [O-1798B, 2-(3-Methylcyclohexyl)-5-(1′,1′-dimethylheptyl)-resorcinolisomer B] | 4 ± 0.6 | 8 | 0.5 ± 0.07 | – | – | – | – | R.T. ED50 (Male ICR mice [2]; Table 6, mice, i.v.): 0.218 mg/kg; ED50 RT (rectal temperature) (Male ICR mice [2]; [13]): 0.6(0.5–0.7) μmol/kg; T.F. ED50 (Male ICR mice [3]; Table 6, mice, i.v.): 0.379 mg/kg; ED50 TF (antinociceptive effect in tail flick assay) (Male ICR mice [3]; [13]): 1.0(0.7–1.6) μmol/kg; S.A ED50 (Male ICR mice [4]; Table 6): 0.070 mg/kg; ED50 SA (suppression of spontaneous activity) (Male ICR mice [4]; [12]): 0.2(0.03–1.2) μmol/kg
3 | CCCCCCC(C)(C)c1cc(OC)c(C2(O)CCCC(C)C2)c(OC)c1 (single isomer, unassigned; isomer 2) [O-1967B, 1-(4-(1,1-Dimethylheptyl-2,6-dimethoxy-phenyl)-3-methyl-cyclohexaol isomer 2] | 1720 ± 105 | 15 | 111 ± 8 | – | – | 8.2% @ 30 | 42.9 @ 30% | R.T. effect at dose (Male ICR mice [2]; Table 6): 0 @ 30 °C
4 | CCCCCCC(C)(C)c1cc(OC)c([C@@H]2C=C(CO)[C@@H]3C[C@H]2C3(C)C)c(OC)c1 [HU-308] | – | – | – | – | – | – | – | Ki (CB1 receptor [5]): > 10000 nM
5 | CCCCCCC(C)(C)c1cc(O)c(C2CCCC2)c(O)c1 [O-1424, 2-(Cyclopentyl)-dimethylheptyl-resorcinol] | 95 ± 6 | – | 7 ± 0.4 | 13 | 13 | – | – | ED50 (Male ICR mice [2]; [8]): 4.24 mg/kg; ED50 (Male ICR mice [3]; [10]): 4.48 mg/kg; ED50 (Male ICR mice [4]; Table 6, read-out: S.A ED50): 8.29 mg/kg; ED50 (Male ICR mice [4]; [14]): 27 µmol/kg
6 | CCCC(C)(C)c1ccc(-c2cc(C)ccc2C(C)C)c(O)c1 [O-1532] | 876 ± 18 | 8 | 113 ± 21 | – | – | – | – | RT effect at the highest dose (change in rectal temperature) (Male ICR mice [2]; mice, i.v.): −0.4 °C; TF percent effect (% MPE) at the highest dose (Male ICR mice [3]; mice, i.v.): 7%; SA percent effect at the highest dose (Male ICR mice [4]): 32%
7 | CCCCCCC(C)(C)c1ccc(-c2cc(CO)ccc2C(C)C)c(O)c1 [O-1601, 3-1′,1′-Dimethylheptyl-6-(2-isopropyl-5-hydroxy-methylphenyl)-phenol] | 5 ± 0.6 | 2 | 3 ± 0.4 | 1.6 | 1.1 | – | – | ED50 (Male ICR mice [4]; [14]): 1.1 µmol/kg
8 | CCCCCCC(C)(C)c1cc(O)c(C2CCC(c3ccccc3)CC2)c(O)c1 (stereo not shown) [O-1663, 2-(4-Phenylcyclohexyl)-5-(1′,1′-dimethylheptyl)-resorcinol] | – | 16 | – | – | – | 7% @ 30 | 32% @ 30 | Ki (CB1 receptor [1]; Ki (nM) CB1, means ± SEM): 144 ± 22 nM; fold decrease in CB1 affinity (CB1 receptor [1]; relative to the comparator analog): 3 fold; Ki (CB2 receptor; Ki (nM) CB2, means ± SEM): 9 ± 2 nM; fold decrease in CB2 affinity (CB2 receptor): 2 fold; RT effect at the highest dose (change in rectal temperature) (Male ICR mice [2]; mice, i.v.): −2.2(30) °C; TF percent effect (% MPE) at the highest dose (Male ICR mice [3]; mice, i.v.): 7%(30); SA percent effect at the highest dose (Male ICR mice [4]): 32%(30)
9 | CCCCCCC(C)(C)c1cc(OC)c(C2CCCC(C)C2)c(OC)c1 (stereo not shown) [O-1999] | > 10000 | – | 466 ± 110 | – | – | 6 @ 30% | 4 @ 30% | fold decrease in CB2 affinity (CB2 receptor): ~600 fold; R.T. effect at dose (Male ICR mice [2]; Table 6): 1 @ 30 °C

Reference: US7179800B2 (priority 2002, dated 2007)
